Earlier results in patent US9572829B2, “Treatment of ocular disorders” (Massachusetts Eye and Ear Infirmary, priority 2004, dated 2017).

Set-up: unit not given here
Settings: typical value, general statement

Compound	Time that photosensitizer persists in the target neovasculature
benzoporphyrin derivative	about fifty
CC(=O)[O-].CC(=O)[O-].CCc1c(CC)c2cc3nc(cnc4cc(OCCOCCOCCOC)c(OCCOCCOCCOC)cc4ncc4nc(cc1[n-]2)C(CCCO)=C4C)C(C)=C3CCCO.O.[Lu+3] [lutetium texaphyrin]	about twenty
C=Cc1c(C)c2cc3nc(c(CC(=O)N[C@@H](CC(=O)O)C(=O)O)c4[nH]c(cc5nc(cc1[nH]2)C(C)=C5CC)c(C)c4C(=O)O)[C@@H](CCC(=O)O)[C@@H]3C [N-aspartyl chlorin e6]	about twenty
